Measurements: ChEMBL document CHEMBL1201862, “PubChem BioAssay data set” (2004)
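Five compound concentrations were applied to cells in 96-well plates for 48 hours; endpoints were derived by simple linear interpolation of the resulting dose-response curve. Here, GI50 denotes the concentration required for 50% inhibition of growth.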 Activity calls are given as the source filed them. Cut-off read from the data, not from the text of the source: active = GI50 up to about 1.1 µM and inactive = higher. Where a SMILES comes first, the peptide text is derived from it. [ ]: non-standard residue; d: D form. The star is where a group is joined. Phe(4-NO2) = N[CH](Cc1ccc([N+](=O)[O-])cc1)C(=O)O; Boc = CC(C)(C)OC(=O)*

How the values were obtained:
Assay in all cases: NCI anticancer screen, dose series, 48 h
[1] = test system: PC-3
[2] = test system: HOP-62
[3] = test system: OVCAR-5
[4] = test system: U-251
[5] = test system: HCT-116
[6] = test system: NCI/ADR-RES
[7] = test system: UACC-257
[8] = test system: K562
[9] = test system: MCF7
[10] = test system: BT-549
[11] = test system: RPMI-8226
[12] = test system: SN12C
[13] = test system: Malme-3M
[14] = test system: SK-MEL-5
[15] = test system: IGROV-1
[16] = test system: KM12
[17] = test system: OVCAR-8
[18] = test system: MDA-N
[19] = test system: MDA-MB-435
[20] = test system: HCC 2998

Measured: GI50

Nc1nc(O)c2[nH]cnc2[n+]1[O-]
inactive: [1] > 100 µM | [2] > 100 µM | [3] > 100 µM | [4] > 100 µM | [5] > 100 µM | [6] > 100 µM | [7] > 100 µM | [8] > 100 µM | [9] 37.1 µM | [10] > 100 µM | [11] > 100 µM | [12] 40.5 µM | [13] > 100 µM | [14] > 100 µM | [15] > 100 µM | [16] > 100 µM | [17] > 100 µM | [18] > 100 µM

O=C(O)CSCCc1ccccc1
inactive: [1] > 100 µM | [2] > 100 µM | [3] > 100 µM | [4] > 100 µM | [5] > 100 µM | [6] > 100 µM | [7] > 100 µM | [8] > 100 µM | [9] > 100 µM | [10] > 100 µM | [11] > 100 µM | [12] > 100 µM | [13] > 100 µM | [14] > 100 µM | [15] > 100 µM | [19] > 100 µM | [16] > 100 µM | [17] > 100 µM | [18] > 100 µM

c1ccc2sc(C3(N4CCCCC4)CCCC3)cc2c1
inactive: [2] 15 µM | [3] 11 µM | [20] 3.85 µM | [5] 5.94 µM | [6] 6.24 µM | [7] 14.6 µM | [8] 6.61 µM | [9] 8.02 µM | [10] 12.6 µM | [11] 2.38 µM | [12] 13.5 µM | [13] 13.8 µM | [14] 10.9 µM | [15] 10.6 µM | [19] 14.9 µM | [16] 7.01 µM | [17] 10.4 µM | [18] 17.4 µM

O=C1/C(=C/C=C/c2ccccc2)CCC1CNc1ccccc1 (stereo not given)
inactive: [1] 36 µM | [2] > 100 µM | [3] > 65.8 µM | [20] > 68.5 µM | [4] > 59.3 µM | [5] 17.9 µM | [6] 96.8 µM | [7] 42.5 µM | [8] 2.71 µM | [9] 6.49 µM | [10] 32.1 µM | [11] 1.59 µM | [12] 23.2 µM | [13] 58.6 µM | [14] 67 µM | [15] 23.4 µM | [19] 40.8 µM | [16] 14.9 µM | [17] 37.4 µM

CCOC(=O)c1sc2nc(SC)nc(N3CCCCC3)c2c1N
inactive: [1] > 100 µM | [2] > 100 µM | [3] > 100 µM | [20] > 100 µM | [4] > 100 µM | [5] > 100 µM | [6] > 100 µM | [7] 5.07 µM | [8] > 100 µM | [10] > 100 µM | [11] > 100 µM | [12] > 100 µM | [13] > 100 µM | [14] > 100 µM | [15] > 100 µM | [19] > 100 µM | [16] > 100 µM | [17] > 100 µM | [18] > 100 µM

O=C(O)C(NCc1ccccc1)C(NCc1ccccc1)C(=O)O (stereo not given)
inactive: [2] > 100 µM | [20] > 100 µM | [4] > 100 µM | [5] > 100 µM | [6] > 100 µM | [7] > 100 µM | [8] > 100 µM | [9] > 100 µM | [10] > 100 µM | [11] > 100 µM | [12] > 100 µM | [13] > 100 µM | [14] > 100 µM | [15] > 100 µM | [19] > 100 µM | [16] > 100 µM | [17] > 100 µM | [18] > 100 µM

C(=N\c1nc2cc3sc(/N=C/c4cccs4)nc3cc2s1)/c1cccs1
inactive: [1] > 100 µM | [2] > 100 µM | [3] > 100 µM | [4] > 100 µM | [5] > 100 µM | [6] > 100 µM | [7] 70.1 µM | [8] > 100 µM | [9] 33.4 µM | [10] > 100 µM | [11] > 100 µM | [12] 72.9 µM | [13] > 100 µM | [14] 33 µM | [15] > 100 µM | [19] > 100 µM | [16] > 100 µM | [17] > 100 µM | [18] > 100 µM

Cc1c(N2C(=O)C(Cl)C2/C=C/c2ccccc2)c(=O)n(-c2ccccc2)n1C (stereo not given)
inactive: [1] 31.6 µM | [2] 22.8 µM | [3] 43.9 µM | [4] 6.22 µM | [5] 16.9 µM | [6] > 100 µM | [7] 4.68 µM | [8] 6.58 µM | [9] 24.7 µM | [10] 33.4 µM | [11] 11.3 µM | [12] 20.4 µM | [13] 5.75 µM | [14] 15.8 µM | [15] 17.1 µM | [19] 12.1 µM | [16] 12.7 µM | [17] 22.1 µM | [18] 14.4 µM

CN(C)CCCNC(=S)S
inactive: [1] > 100 µM | [2] > 100 µM | [3] > 100 µM | [4] > 100 µM | [5] > 100 µM | [6] > 100 µM | [7] > 100 µM | [8] > 100 µM | [9] > 100 µM | [10] > 100 µM | [11] > 100 µM | [12] > 100 µM | [13] > 100 µM | [14] > 100 µM | [15] > 100 µM | [19] > 100 µM | [16] > 100 µM | [17] > 100 µM | [18] > 100 µM

CCOC(=O)CCC(NC(=O)C(Cc1ccc([N+](=O)[O-])cc1)NC(=O)OC(C)(C)C)C(=O)NC(CCC(=O)OCC)C(=O)OCC (stereo not given) (Boc-[Phe(4-NO2)]-Glu(OEt)-Glu(OEt)-OEt; configuration not given here)
inactive: [1] 19.7 µM | [2] 24.2 µM | [3] 20.7 µM | [20] 15.8 µM | [4] 19.8 µM | [5] 18.3 µM | [7] > 10 µM | [8] > 10 µM | [9] 28 µM | [10] 22.2 µM | [11] 18.1 µM | [12] 22.3 µM | [13] 18.2 µM | [14] 17.4 µM | [15] 20.3 µM | [16] 11.7 µM | [17] 18.5 µM | [18] 21.1 µM

Nc1ccc(S(=O)(=O)Nc2cnc3ccccc3n2)cc1 [SULFAQUINOXALINE]
inactive: [1] > 100 µM | [2] > 100 µM | [3] > 100 µM | [20] > 100 µM | [4] > 100 µM | [5] > 100 µM | [6] > 100 µM | [7] > 100 µM | [8] > 100 µM | [10] > 100 µM | [11] > 100 µM | [12] > 100 µM | [13] > 96.6 µM | [14] > 100 µM | [15] > 96.6 µM | [19] > 100 µM | [16] > 100 µM | [17] > 100 µM | [18] > 100 µM
